From US7157430B2, “(Substituted)acyl dipeptidyl inhibitors of the ICE/CED-3 family of cysteine proteases” (Idun Pharmaceuticals, Inc., priority 1998, dated 2007)
Where two headings read alike, the source gives them in different places. Where a SMILES comes first, the peptide text is derived from it. The star is where a group is joined. Cbz = O=C(OCc1ccccc1)*

Columns and labels:
Format in all cases: biochemical
mICE = molecular target: T1, mICE (Mus musculus, UniProt P29452); assay: Fluorescence enzyme assay, IC50 determination, ICE
T1 sequence (P29452 123-296 limits assumed): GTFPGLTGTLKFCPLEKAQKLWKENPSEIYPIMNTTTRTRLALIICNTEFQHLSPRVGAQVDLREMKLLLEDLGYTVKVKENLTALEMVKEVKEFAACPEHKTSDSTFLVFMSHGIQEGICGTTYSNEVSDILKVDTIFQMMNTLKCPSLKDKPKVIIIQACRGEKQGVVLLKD
T1 sequence (P29452 315-402 limits assumed): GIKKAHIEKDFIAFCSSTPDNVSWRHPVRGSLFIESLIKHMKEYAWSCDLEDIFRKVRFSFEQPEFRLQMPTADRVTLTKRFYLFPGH
Method: (§1) Fluorescence enzyme assays detecting the activity of the compounds of Formula 1 utilizing the recombinant ICE and CPP32 enzymes are performed essentially according to Thornberry et al. (Nature, 356:768:774 (1992)) and Nicholson et al. (Nature, 376:37–43 (1995)) respectively, (herein incorporated by reference) in 96 well microtiter plates. The substrate is Acetyl-Tyr-Val-Ala-Asp-amino-4-methylcoumarin (AMC) for the ICE assay and Acetyl-Asp-Glu-Val-Asp-amino-4-methylcoumarin for the CPP32, Mch2, Mch3 and Mch5 assays. Enzyme reactions are run in ICE buffer (25 mM HEPES, 1 mM EDTA, 0.1% CHAPS, 10% sucrose, pH 7.5) containing 2 mM DTT at room temperature in duplicate.
(§2) The enzyme and the compound of Formula I to be assayed are allowed to preincubate in the microtitre plate wells for 30 minutes at room temperature prior to the addition of substrate to initiate the reaction. Fluorescent AMC product formation is monitored for one hour at room temperature by measuring the fluorescence emission at 460 nm using an excitation wavelength of 360 nm. The fluorescence change in duplicate (control) wells are averaged and the mean values are plotted as a function of inhibitor concentration to determine the inhibitor concentration producing 50% inhibition (IC50). The results of this assay are set forth below in Table 1 and in Table 3 (for Table 3, see Examples 11 through 52).
(§3) The reference compound for this assay was Cbz-ValAlaAsp-H and the values are denoted in Table 1 as “Reference”.

CPP32 = molecular target: T2, CPP32 (Homo sapiens, UniProt P42574); assay: Fluorescence enzyme assay, IC50 determination, CPP32
T2 sequence (P42574 29-175 limits assumed): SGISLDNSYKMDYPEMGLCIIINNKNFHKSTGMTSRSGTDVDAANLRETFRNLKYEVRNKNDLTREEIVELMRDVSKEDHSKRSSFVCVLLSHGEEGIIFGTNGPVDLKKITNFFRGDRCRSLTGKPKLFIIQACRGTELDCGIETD
T2 sequence (P42574 176-277 limits assumed): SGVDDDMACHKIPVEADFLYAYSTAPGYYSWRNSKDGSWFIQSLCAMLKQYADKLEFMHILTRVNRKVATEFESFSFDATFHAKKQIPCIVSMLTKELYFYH
Method: as §1, §2, §3

MCH-2 = molecular target: T3, MCH-2 (Homo sapiens, UniProt P55212); assay: Fluorescence enzyme assay, IC50 determination, Mch2
T3 sequence (P55212 24-179 limits assumed): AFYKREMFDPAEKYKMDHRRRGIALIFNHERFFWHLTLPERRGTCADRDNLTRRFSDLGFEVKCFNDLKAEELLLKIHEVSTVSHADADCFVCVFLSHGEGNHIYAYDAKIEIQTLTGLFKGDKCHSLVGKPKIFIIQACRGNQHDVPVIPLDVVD
T3 sequence (P55212 194-293 limits assumed): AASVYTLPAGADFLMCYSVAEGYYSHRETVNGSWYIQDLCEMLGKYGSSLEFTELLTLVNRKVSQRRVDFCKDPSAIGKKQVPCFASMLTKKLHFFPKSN
Method: as §1, §2, §3

MCH-3 = molecular target: T4, MCH-3 (Homo sapiens, UniProt P55210); assay: Fluorescence enzyme assay, IC50 determination, Mch3
T4 sequence (P55210 24-198 limits assumed): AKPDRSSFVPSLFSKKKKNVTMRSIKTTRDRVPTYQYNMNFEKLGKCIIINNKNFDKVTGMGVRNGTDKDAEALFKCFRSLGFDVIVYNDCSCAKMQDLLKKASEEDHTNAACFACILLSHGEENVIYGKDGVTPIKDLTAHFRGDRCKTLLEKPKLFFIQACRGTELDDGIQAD
T4 sequence (P55210 207-303 limits assumed): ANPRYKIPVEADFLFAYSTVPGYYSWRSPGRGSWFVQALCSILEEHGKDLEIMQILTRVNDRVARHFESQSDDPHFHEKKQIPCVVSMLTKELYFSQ
Method: as §1, §2, §3

MCH-5 = MCH-5 (Homo sapiens, UniProt Q14790); assay: Fluorescence enzyme assay, IC50 determination, Mch5
MCH-5, sequence (Q14790 217-374 limits assumed, species assumed): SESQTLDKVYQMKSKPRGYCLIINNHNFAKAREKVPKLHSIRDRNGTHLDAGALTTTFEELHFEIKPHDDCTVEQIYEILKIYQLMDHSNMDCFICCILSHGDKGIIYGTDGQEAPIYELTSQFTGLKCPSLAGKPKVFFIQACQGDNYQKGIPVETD
MCH-5, sequence (Q14790 385-479 limits assumed, species assumed): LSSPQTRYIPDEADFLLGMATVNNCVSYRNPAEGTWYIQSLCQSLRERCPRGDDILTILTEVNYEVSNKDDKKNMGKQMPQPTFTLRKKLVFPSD
Method: as §1, §2, §3

[1] = Table 3, method of Preparation 3A, read-out: mICE I50
[2] = Table 3, method of Preparation 3A, read-out: CPP32 I50
[3] = Table 3, method of Preparation 3A, read-out: MCH2 I50
[4] = Table 3, method of Preparation 3A, read-out: MCH3 I50
[5] = Table 3, method of Preparation 3A, read-out: MCH5 I50
[6] = recombinant enzyme, Ac-YVAD-AMC substrate, 30 min preincubation, room temperature, read-out: mICE IC50
[7] = recombinant enzyme, Ac-DEVD-AMC substrate, 30 min preincubation, room temperature, read-out: CPP32 IC50
[8] = Ac-DEVD-AMC substrate, 30 min preincubation, room temperature, read-out: MCH-2 IC50
[9] = Ac-DEVD-AMC substrate, 30 min preincubation, room temperature, read-out: MCH-3 IC50
[10] = Ac-DEVD-AMC substrate, 30 min preincubation, room temperature, read-out: MCH-5 IC50

| Compound | IC50 (mICE; [1]) | IC50 (CPP32; [2]) | IC50 (MCH-2; [3]) | IC50 (MCH-3; [4]) | IC50 (MCH-5; [5]) | IC50 (mICE; [6]) | IC50 (CPP32; [7]) | IC50 (MCH-2; [8]) | IC50 (MCH-3; [9]) | IC50 (MCH-5; [10]) |
| --- | --- | --- | --- | --- | --- | --- | --- | --- | --- | --- |
| CC(C)C[C@H](NC(=O)COc1cccc2c1CCCC2)C(=O)N[C@H](C=O)CC(=O)O [Example 51] | 1810 nM | 324 nM | 11800 nM | 2740 nM | 1750 nM |  |  |  |  |  |
| CC(C)C[C@H](NC(=O)COc1ccc2c(c1)CCCC2)C(=O)N[C@H](C=O)CC(=O)O [Example 52] | 2570 nM | 162 nM | 28600 nM | 2310 nM | 4950 nM |  |  |  |  |  |
| O=C[C@H](CC(=O)O)NC(=O)[C@@H]1CSC(c2ccccc2)N1C(=O)COc1cccc2ccccc12 (stereo partly drawn) [Example 179, (3S,2′RS,4′R)-3-[3′-((1-Naphthyloxy)Acetyl)-2′-Phenylthiazolidine-4′-Carbonyl]Amino-4-Oxobutanoic Acid] |  |  |  |  |  | 204 nM | 14000 nM | 3530 nM | > 50000 nM | 1550 nM |
| O=C[C@H](CC(=O)O)NC(=O)[C@@H]1Cc2ccccc2N1C(=O)COc1cccc2ccccc12 [Example 186, (2′S,3S)-3-[N-((1-Naphthyloxy)Acetyl)Indoline-2′-Carbonyl]Amino-4-Oxobutanoic Acid] |  |  |  |  |  | 298 nM | 25300 nM | > 50000 nM | > 50000 nM | 39800 nM |
| CC(C)[C@H](NC(=O)COc1cccc2c(NS(=O)(=O)C(F)(F)F)cccc12)C(=O)N[C@H](C=O)CC(=O)O [Example 188, (3S)-3-[N-((5′-Trifluoromethylsulfonylamino-1′-Naphthyloxy)Acetyl)Valinyl]Amino-4-Oxobutanoic Acid] |  |  |  |  |  | 127 nM | 207 nM | 1010 nM | 11000 nM | 615 nM |
| CC(C)[C@H](NC(=O)OCc1ccccc1)C(=O)N[C@@H](C)C(=O)N[C@H](C=O)CC(=O)O [reference, Cbz-ValAlaAsp-H, reference compound] (Cbz-Val-Ala-Asp-aldehyde) |  |  |  |  |  | 64 nM | 47000 nM | > 10000 nM | > 10000 nM | 2960 nM |

More lines, now with the values ahead:

| IC50 (mICE; [1]) | IC50 (CPP32; [2]) | IC50 (MCH-2; [3]) | IC50 (MCH-3; [4]) | IC50 (MCH-5; [5]) | IC50 (mICE; [6]) | IC50 (CPP32; [7]) | IC50 (MCH-2; [8]) | IC50 (MCH-3; [9]) | IC50 (MCH-5; [10]) | Compound |
| --- | --- | --- | --- | --- | --- | --- | --- | --- | --- | --- |
| 1900 nM | 763 nM | 20500 nM | 12000 nM | 7530 nM |  |  |  |  |  | CC(C)C[C@H](NC(=O)COc1ccc(-c2ccccc2)cc1)C(=O)N[C@H](C=O)CC(=O)O [Example 41] |
| 521 nM | 490 nM | 10100 nM | 3360 nM | 6050 nM |  |  |  |  |  | CC(C)C[C@H](NC(=O)COc1ccccc1Cc1ccccc1)C(=O)N[C@H](C=O)CC(=O)O [Example 42] |
| 1800 nM | 346 nM | 18900 nM | 4410 nM | 4720 nM |  |  |  |  |  | CC(C)C[C@H](NC(=O)COc1ccc(Cc2ccccc2)cc1)C(=O)N[C@H](C=O)CC(=O)O [Example 43] |
| 2210 nM | 545 nM | 21200 nM | 6820 nM | 9280 nM |  |  |  |  |  | CC(C)C[C@H](NC(=O)COc1ccc(Oc2ccccc2)cc1)C(=O)N[C@H](C=O)CC(=O)O [Example 44] |
| 2400 nM | 222 nM | 9750 nM | 2200 nM | 4340 nM |  |  |  |  |  | CC(C)C[C@H](NC(=O)COc1ccccc1OCc1ccccc1)C(=O)N[C@H](C=O)CC(=O)O [Example 45] |
| 2510 nM | 570 nM | 33400 nM | 7250 nM | 8600 nM |  |  |  |  |  | CC(C)C[C@H](NC(=O)COc1ccc(OCc2ccccc2)cc1)C(=O)N[C@H](C=O)CC(=O)O [Example 46] |
